# According to patent US20160280743A1, “BACTERIAL MUTANTS AND METHODS OF USE” (priority 2015, published 2016):
# Like-named read-outs stand apart in the source and are kept apart here.
# Assays:
# E. coli GD102 (ΔTolC) = details: for MIC GD102 (ΔTolC) —: E. coli ΔTolC without pore, 0.1% arabinose, LB, 37° C., 16 h
# Method: (§1) Susceptibilities of E. coli and P. aeruginosa cells to different classes of antibiotics were determined by two-fold broth dilution method [1] with following modifications. Cells were grown in Luria-Bertani (LB) broth (tryptone 10 g/L, yeast extract 5 g/L and NaCl 5 g/L) with appropriate selection markers as needed, at 37° C. with shaking at 200 rpm. When needed, at OD600˜0.3, either L-arabinose (final concentration 0.1%) or IPTG (final concentration 0.1 mM) were added to induce the expression of the pore and cells were further incubated until OD600 reached 1.0. MICs of various antimicrobial agents were measured in 96-well micro-titer plates. For this purpose, exponentially growing cells were inoculated at a density of 10^5 cells/ml into wells containing LB medium in the presence of two-fold increasing concentrations of drugs under investigation at constant inducer concentration of 0.1% arabinose for E. coli or 0.1 mM IPTG for P. aeruginosa strains. Cell growth was determined visually or using Spark 10M microplate reader (Tecan) after incubation of the micro-titer plates at 37° C. for 16 h.
# (§2) For this purpose, induced cells were dispensed into 96-well microplates with LB medium containing two-fold dilutions of an antibiotic of interest and a respective concentration of an inducer.
# [1] = test system: P. aeruginosa PAO1, PAO1-Pore, Δ3, Δ3-Pore; assay: Fold MIC change between P. aeruginosa strains (OM barrier, efflux); assay type: cell-based, Pseudomonas aeruginosa; details: for Fold MIC change, Efflux, PAO1-Pore/Δ3-Pore / Fold MIC change, Efflux, PAO1/Δ3 / Fold MIC change, OM barrier, PAO1/PAO1-Pore / Fold MIC change, OM barrier, Δ3/Δ3-Pore: P. aeruginosa
# [2] = test system: P. aeruginosa Δ3-Pore (GKCW116, FhuAΔC/Δ4L pore); assay: MIC, two-fold broth dilution, P. aeruginosa Δ3-Pore; details: for MIC Δ3 Pore: P. aeruginosa Δ3-Pore, 0.1 mM IPTG, LB, 37° C., 16 h
# Method: as §1, §2
# [3] = test system: E. coli ΔTolC-Pore (GKCW103, FhuAΔC/Δ4L pore); details: 0.1% arabinose, LB, 37° C., 16 h
# Method: as §1, §2
# [4] = test system: E. coli WT-Pore (GKCW101, FhuAΔC/Δ4L pore); assay: microbe, parasite or virus in culture; details: Escherichia coli
# Method: as §1, §2
# [5] = test system: E. coli WT, WT-Pore, ΔTolC, ΔTolC-Pore; assay type: cell-based, Escherichia coli; details: for Fold MIC change, Efflux, WT-Pore/ΔTolC-Pore / Fold MIC change, Efflux, WT/ΔTolC / Fold MIC change, OM barrier, WT/WT-Pore / Fold MIC change, OM barrier, ΔTolC/ΔTolC-Pore: E. coli
# P. aeruginosa PAO1 [6] = assay: microbe, parasite or virus in culture; details: Pseudomonas aeruginosa, PAO1, 16 h, read-out: MIC PAO1 —
# Method: as §1, §2
# E. coli BW 25113 (WT) [7] = assay: microbe, parasite or virus in culture; details: Escherichia coli
# Method: as §1, §2
# [8] = test system: P. aeruginosa PAO1Δ3 (Δ3); details: for MIC Δ3 —: P. aeruginosa Δ3 without pore, 0.1 mM IPTG, LB, 37° C., 16 h
# Method: as §1, §2
# [9] = test system: P. aeruginosa PAO1-Pore (GKCW115, FhuAΔC/Δ4L pore); assay: MIC, two-fold broth dilution, P. aeruginosa PAO1-Pore; details: for MIC: Pseudomonas aeruginosa; for MIC PAO1 Pore: P. aeruginosa PAO1-Pore, 0.1 mM IPTG, LB, 37° C., 16 h
# Method: as §1, §2
# [10] = test system: E. coli WT-Pore (GKCW101, FhuAΔC/Δ4L pore); details: 0.1% arabinose, LB, 37° C., 16 h
# Method: as §1, §2
# P. aeruginosa PAO1 [11] = details: P. aeruginosa PAO1 without pore; 0.1 mM IPTG; LB, 37° C., 16 h
# Method: as §1, §2
# E. coli BW 25113 (WT) [12] = details: E. coli WT without pore; 0.1% arabinose; LB, 37° C., 16 h
# Method: as §1, §2
# [13] = 16 h, read-out: MIC BW 25113 (WT) Pore
# [14] = 16 h, read-out: MIC BW 25113 (WT) —
Molecule,MIC GD102 (ΔTolC) — (E. coli GD102 (ΔTolC)) [µg/mL],"Fold MIC change, Efflux, PAO1-Pore/Δ3-Pore [1] [fold]","Fold MIC change, Efflux, PAO1/Δ3 [1]","Fold MIC change, OM barrier, PAO1/PAO1-Pore [1]","Fold MIC change, OM barrier, Δ3/Δ3-Pore [1] [fold]",MIC Δ3 Pore [2] [µg/mL],MIC GD102 (ΔTolC) Pore [3] [µg/mL],"MIC [4, 13] [µg/mL]","Fold MIC change, Efflux, WT-Pore/ΔTolC-Pore [5] [fold]","Fold MIC change, Efflux, WT/ΔTolC [5]","Fold MIC change, OM barrier, WT/WT-Pore [5]","Fold MIC change, OM barrier, ΔTolC/ΔTolC-Pore [5] [fold]",MIC (P. aeruginosa PAO1 [6]) [µg/mL],MIC (E. coli BW 25113 (WT) [7]; [14]) [µg/mL],MIC Δ3 — [8] [µg/mL],MIC BW 25113 (WT) Pore [10] [µg/mL],MIC PAO1 — (P. aeruginosa PAO1 [11]) [µg/mL],MIC PAO1 Pore [9] [µg/mL],MIC BW 25113 (WT) — (E. coli BW 25113 (WT) [12]) [µg/mL],further results
Cc1onc(-c2ccccc2Cl)c1C(=O)N[C@@H]1C(=O)N2[C@@H]1SC(C)(C)[C@@H]2C(=O)O [Cloxacillin],1,64,≧8 fold,≧4 fold,16,8,1,128,128,512 fold,4 fold,1,> 2050,512,128,,,,,
CC[C@H]1OC(=O)[C@H](C)[C@@H](O[C@H]2C[C@@](C)(OC)[C@@H](O)[C@H](C)O2)[C@H](C)[C@@H](O[C@@H]2O[C@H](C)C[C@H](N(C)C)[C@H]2O)[C@](C)(O)C[C@@H](C)C(=O)[C@H](C)[C@@H](O)[C@]1(C)O [Erythromycin],4,,,,,,,4,,,,,,64,16,,,,,"MIC in E. coli ΔTolC cells (E. coli GD102 (ΔTolC); unchanged in the range of 0.001-0.5% arabinose (FIG. 4A)): 5.5 µM; Change of MIC on inactivation of the three major efflux pumps (PAO1 vs Δ3) [1]: 8 fold; MIC in P. aeruginosa Δ3-Pore cells ([2]; induced, plateau with increasing IPTG (FIG. 5)): 0.085 µM; MIC ([9]; PAO1, read-out: MIC in P. aeruginosa PAO1-Pore cells): 1.4 µM; MIC ([4]; read-out: MIC in E. coli WT-Pore cells): 1.4 µM; Additional decrease of MIC in permeabilized ΔTolC-Pore cells ([5]; FIG. 4A): 16 fold; Difference of MICs in E. coli WT and ΔTolC cells ([5]; FIG. 4A): 16 fold; Reduction of MIC by permeabilization of the outer membrane in WT-Pore E. coli ([5]; FIG. 4A): 64 fold; Total potentiation (WT to ΔTolC-Pore) ([5]; FIG. 4A): 512 fold; MIC (E. coli BW 25113 (WT) [7]; read-out: MIC in E. coli WT cells): 87 µM; MIC in P. aeruginosa Δ3 cells ([8]; FIG. 5): 21.8 µM"
CCn1cc(C(=O)O)c(=O)c2ccc(C)nc21 [Nalidixic acid],1,16,8 fold,2 fold,4,2,1,8,8,8 fold,1 fold,1,64,8,8,,,,,
CO[C@@H]1[C@@H](OC(N)=O)[C@@H](O)[C@H](Oc2ccc3c(O)c(NC(=O)c4ccc(O)c(CC=C(C)C)c4)c(=O)oc3c2C)OC1(C)C [Novobiocin],0.5,64,16 fold,8 fold,32,1,0.125,32,256,256 fold,4 fold,4,512,128,32,,,,,
CO[C@H]1/C=C/O[C@@]2(C)Oc3c(C)c(O)c4c(O)c(c(/C=N/N5CCN(C)CC5)c(O)c4c3C2=O)NC(=O)/C(C)=C\C=C\[C@H](C)[C@H](O)[C@@H](C)[C@@H](O)[C@@H](C)[C@H](OC(C)=O)[C@@H]1C [Rifampicin],4,,,,,0.5,0.25,0.25,,,,,16,4,16,,,,,"MIC ([9]; PAO1, 16 h, read-out: MIC PAO1 Pore): 0.5 µg/mL"
CCCCCCCCCCCCOS(=O)(=O)[O-].[Na+] [SDS],5,64,≧2 fold,≧2 fold,64,156.3,5,,2000,2000 fold,1 fold,1,,,10000,10000,>10000,10000,10000,
CN(C)[C@@H]1C(O)=C(C(N)=O)C(=O)[C@@]2(O)C(O)=C3C(=O)c4c(O)cccc4[C@@](C)(O)[C@H]3C[C@@H]12 [Tetracycline],0.125,16,2 fold,8 fold,64,0.031,0.125,0.25,2,4 fold,2 fold,1,4,0.5,2,,,,,
Coumermycin,8,1,1 fold,16 fold,16,1,0.5,,4,1 fold,4 fold,16,,,16,2,16,1,8,
Gentamicin,4,,,,,,4,,0.5,1 fold,2 fold,1,,,,2,,,4,
Tobramycin,,2,4 fold,2 fold,1,0.5,,,,,,,,,0.5,,2,1,,
Triclosan,0.004,,,,,8,0.002,,,,,,,,32,0.031,>1024,>1024,0.031,
Virginiamycin,8,,,,,,0.5,,512,≧64 fold,≧2 fold,16,,,,256,,,>256,
